# From ChEMBL document CHEMBL4007499, “Anti-influenza triterpenoid saponins (saikosaponins) from the roots of Bupleurum marginatum var. stenophyllum” (Bioorg Med Chem Lett, 2017)
# Legend:
# [1] = Cytotoxicity against human 293T cells expressing Gluc assessed as inhibition of cell proliferation at 20 uM after 24 hrs by CCK8 assay relative to control; format: cell-based; conditions: 293T (HEK-293T) cells expressing Gluc
# [2] = Cytotoxicity against human 293T cells expressing Gluc assessed as inhibition of cell proliferation after 24 hrs by CCK8 assay; format: cell-based; conditions: 293T (HEK-293T) cells expressing Gluc
# cells = conditions: Influenza A virus, HEK-293T
# Description: Antiviral activity against Influenza virus A/WSN/33(H1N1) infected in human 293T cells assessed as inhibition of viral replication preincubated for 2 hrs followed by viral infection measured after 24 hrs by luciferase reporter gene assay
# in vitro = conditions: human, 293T cells expressing Gluc
# Description: Selectivity index, ratio of CC50 for human 293T cells expressing Gluc to EC50 for Influenza A virus WSN/33(H1N1)
smiles,measurement,setting,value
C[C@H]1O[C@@H](O[C@H]2CC[C@@]3(C)[C@@H](CC[C@]4(C)[C@@H]3C=CC3=C5CC(C)(C)CC[C@]5(CO)C(=O)C[C@]34C)[C@]2(C)CO)[C@H](O)[C@@H](O[C@@H]2O[C@H](CO)[C@@H](O)[C@H](O)[C@H]2O)[C@H]1O,"inhibition at 24 h, 20 µM",[1],9%
C[C@H]1O[C@@H](O[C@H]2CC[C@]3(C)[C@H]4C=C[C@]56OC[C@@]7(CCC(C)(C)C[C@H]75)[C@@H](O)C[C@@]6(C)[C@]4(C)CC[C@H]3C2(C)C)[C@H](O)[C@@H](O[C@@H]2O[C@H](CO)[C@@H](O)[C@H](O)[C@H]2O)[C@H]1O,CC50 at 24 h,[2],2.85 µM
same,EC50,cells,2.14 µM
same,selectivity ratio,in vitro,1.33
same,"inhibition at 24 h, 20 µM",[1],44.8%
C[C@H]1O[C@@H](O[C@H]2CC[C@@]3(C)[C@@H](CC[C@]4(C)[C@@H]3C=CC3=C5CC(C)(C)CC[C@]5(CO)[C@@H](O)C[C@]34C)[C@]2(C)CO)[C@H](O)[C@@H](O)[C@H]1O,CC50 at 24 h,[2],24.5 µM
same,EC50,cells,8.48 µM
same,selectivity ratio,in vitro,2.89
same,"inhibition at 24 h, 20 µM",[1],0%
C[C@H]1O[C@@H](O[C@H]2CC[C@@]3(C)[C@@H](CC[C@]4(C)[C@@H]3C=C[C@]35OC[C@@]6(CCC(C)(C)C[C@H]63)C(=O)C[C@]54C)[C@]2(C)CO)[C@H](O)[C@@H](O[C@@H]2O[C@H](CO)[C@@H](O)[C@H](O)[C@H]2O)[C@H]1O,CC50 at 24 h,[2],3.8 µM
same,EC50,cells,2.66 µM
same,selectivity ratio,in vitro,1.43
same,"inhibition at 24 h, 20 µM",[1],49.7%
CO[C@@H]1C=C2[C@@H]3CC(C)(C)CC[C@]3(CO)[C@@H](O)C[C@@]2(C)[C@]2(C)CC[C@H]3C(C)(C)[C@@H](O[C@@H]4O[C@H](CO[C@@H]5O[C@H](CO)[C@@H](O)[C@H](O)[C@H]5O)[C@@H](O[C@@H]5O[C@@H](C)[C@H](O)[C@@H](O)[C@H]5O)[C@H](O)[C@H]4O)CC[C@]3(C)[C@@H]12,"inhibition at 24 h, 20 µM",[1],0%
C[C@@H]1O[C@@H](O[C@H]2[C@H](O)[C@@H](O)[C@H](O[C@H]3CC[C@@]4(C)[C@@H](CC[C@]5(C)[C@@H]4C=CC4=C6CC(C)(C)CC[C@]6(CO)[C@@H](O)[C@H](O)[C@]45C)[C@]3(C)CO)O[C@@H]2CO[C@@H]2O[C@H](CO)[C@@H](O)[C@H](O)[C@H]2O)[C@H](O)[C@H](O)[C@H]1O,CC50 at 24 h,[2],> 200 µM
same,EC50,cells,7.67 µM
same,selectivity ratio,in vitro,> 26.1
same,"inhibition at 24 h, 20 µM",[1],0%
C[C@H]1O[C@@H](O[C@H]2CC[C@@]3(C)[C@@H](CC[C@]4(C)[C@@H]3C=CC3=C5CC(C)(C)CC[C@]5(CO)C(=O)[C@H](O)[C@]34C)[C@]2(C)CO)[C@H](O)[C@@H](O[C@@H]2O[C@H](CO)[C@@H](O)[C@H](O)[C@H]2O)[C@H]1O,"inhibition at 24 h, 20 µM",[1],0%
C[C@@H]1O[C@@H](O[C@H]2[C@H](O)[C@@H](O)[C@H](O[C@H]3CC[C@]4(C)[C@H]5C=CC6=C7CC(C)(C)CC[C@]7(CO)[C@@H](O)[C@H](O)[C@@]6(C)[C@]5(C)CC[C@H]4C3(C)C)O[C@@H]2CO[C@@H]2O[C@H](CO)[C@@H](O)[C@H](O)[C@H]2O)[C@H](O)[C@H](O)[C@H]1O,CC50 at 24 h,[2],> 200 µM
same,EC50,cells,10.1 µM
same,selectivity ratio,in vitro,> 19.8
same,"inhibition at 24 h, 20 µM",[1],5.14%
C/C=C/C(=O)OC[C@H]1O[C@@H](O[C@H]2[C@@H](O)[C@@H](C)O[C@@H](O[C@H]3CC[C@@]4(C)[C@@H](CC[C@]5(C)[C@@H]4C=C[C@]46OC[C@@]7(CCC(C)(C)C[C@H]74)[C@@H](O)C[C@]65C)[C@]3(C)CO)[C@@H]2O)[C@H](O)[C@@H](O)[C@@H]1O,CC50 at 24 h,[2],7.02 µM
same,EC50,cells,8.92 µM
same,selectivity ratio,in vitro,0.79
same,"inhibition at 24 h, 20 µM",[1],44.2%
C[C@H]1O[C@@H](O[C@H]2CC[C@@]3(C)[C@@H](CC[C@]4(C)[C@@H]3C=CC3=C5C[C@@](C)(CO)CC[C@]5(CO)[C@@H](O)C[C@]34C)[C@]2(C)CO)[C@H](O)[C@@H](O[C@@H]2O[C@H](CO)[C@@H](O)[C@H](O)[C@H]2O)[C@H]1O,"inhibition at 24 h, 20 µM",[1],5.87%
C[C@H]1O[C@@H](O[C@H]2CC[C@]3(C)C4=CC=C5[C@@H]6CC(C)(C)CC[C@]6(CO)[C@H](O)C[C@@]5(C)[C@]4(C)CC[C@H]3[C@]2(C)CO)[C@H](O)[C@@H](O[C@@H]2O[C@H](CO)[C@@H](O)[C@H](O)[C@H]2O)[C@H]1O,CC50 at 24 h,[2],38.2 µM
same,EC50,cells,21.8 µM
same,selectivity ratio,in vitro,1.75
same,"inhibition at 24 h, 20 µM",[1],1.39%
C[C@@H]1O[C@@H](O[C@H]2[C@H](O)[C@@H](O)[C@H](O[C@H]3CC[C@@]4(C)[C@@H](CC[C@]5(C)[C@@H]4CC=C4[C@@H]6CC(C)(C)CC[C@]6(CO)[C@@H](O)C[C@]45C)[C@]3(C)CO)O[C@@H]2CO[C@@H]2O[C@H](CO)[C@@H](O)[C@H](O)[C@H]2O)[C@H](O)[C@H](O)[C@H]1O,CC50 at 24 h,[2],> 200 µM
same,EC50,cells,17.9 µM
same,selectivity ratio,in vitro,> 11.2
same,"inhibition at 24 h, 20 µM",[1],0%
C[C@H]1O[C@@H](O[C@H]2CC[C@]3(C)C4=CC=C5[C@@H]6CC(C)(C)CC[C@]6(CO)[C@@H](O)C[C@@]5(C)[C@]4(C)CC[C@H]3[C@]2(C)CO)[C@H](O)[C@@H](O[C@@H]2O[C@H](CO)[C@@H](O)[C@H](O)[C@H]2O)[C@H]1O,CC50 at 24 h,[2],18.9 µM
same,EC50,cells,15.8 µM
same,selectivity ratio,in vitro,1.19
same,"inhibition at 24 h, 20 µM",[1],1.39%
CO[C@@H]1C=C2[C@@H]3CC(C)(C)CCC3=C(O)C(=O)[C@@]2(C)[C@]2(C)CC[C@H]3[C@](C)(CO)[C@@H](O[C@@H]4O[C@H](C)[C@H](O)[C@H](O[C@@H]5O[C@H](CO)[C@@H](O)[C@H](O)[C@H]5O)[C@H]4O)CC[C@]3(C)[C@@H]12,"inhibition at 24 h, 20 µM",[1],0%
NC(=O)c1ncn([C@@H]2O[C@H](CO)[C@@H](O)[C@H]2O)n1 [RIBAVIRIN],CC50 at 24 h,[2],> 205 µM
same,EC50,cells,17.9 µM
same,selectivity ratio,in vitro,> 11.4
same,"inhibition at 24 h, 20 µM",[1],0%
